Holding throughout (assay): inhibition of tumour cell growth, NCI panel, 48 h
Assay [1] has as its system T-47D breast.
The subject of assay [2] is NCI/ADR-RES ovarian.
For assay [3], the system named is SK-MEL-2 melanoma.
The subject of assay [4] is K-562 leukemia.
In assay [5] the test system is MDA-MB-435.

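Test compounds were applied to cells in 96-well plates for 48 hours at 5 doses. Abbreviation: GI50, concentration required for 50% inhibition of growth. TGI marks complete inhibition of growth.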

In the case of `COc1cc2c(NCCCCCCO[N+](=O)[O-])ncnc2c(OC)c1OC`, the TGI was more than 93.2 µM in assay [1]; 51.3 µM in assay [2]; 53.9 µM in assay [3]; more than 100 µM in assay [4]; 42.3 µM in assay [5].
Regarding `Clc1cccc(NC=Nc2ccc(-c3nc4ccccc4s3)cc2)c1`, the GI50 in assay [1] is 10.8 µM; in assay [2], 13.2 µM; in assay [3] it was 18 µM; in assay [4] it was 7.81 µM; in assay [5], 14.3 µM. The TGI in assay [1] was 39 µM; in assay [2] it was 32 µM; in assay [3] it was more than 50 µM; in assay [4], 18.2 µM; in assay [5] it was 32.7 µM.
Take `CN1CCN(Cc2ccc(NC(=O)c3cncc(C#Cc4cnc(N)c5ccccc45)c3)cc2C(F)(F)F)CC1`: the GI50 in assay [1] is 1.01 µM; in assay [2] it was 0.556 µM; in assay [3], 0.196 µM; in assay [4] it was 0.00333 µM; in assay [5] it was 0.348 µM. In addition, the TGI in assay [1] turned out to be 4.11 µM; in assay [2], 1.21 µM; in assay [3], 0.697 µM; in assay [4], 0.524 µM; in assay [5], 0.783 µM.
With `CN(C)S(=O)(=O)Nc1ccccn1`, the TGI in assay [2], in assay [3], in assay [4] and in assay [5] was more than 100 µM throughout.
In the case of `O=C1CSC(N2CCN(c3cccc(Cl)c3)CC2)=N1`, the GI50 in assay [1], in assay [2], in assay [3], in assay [4] and in assay [5] was more than 100 µM throughout. For the same compound, the TGI in assay [1], in assay [2], in assay [3], in assay [4] and in assay [5] was more than 100 µM throughout.
Take `CCN1CCN(c2nc(NCCNc3ccnc4cc(Cl)ccc34)c3ccccc3n2)CC1`: the GI50 is 1.92 µM in assay [1]; 4.57 µM in assay [2]; 2.07 µM in assay [3]; 1.03 µM in assay [4]; 1.64 µM in assay [5]. Besides, the TGI stood at 4.42 µM in assay [1]; 25.8 µM in assay [2]; 4.33 µM in assay [3]; 3.89 µM in assay [4]; 3.14 µM in assay [5].
In the case of `O=C1c2ccccc2-c2c1c1cc3c(cc1c(=O)n2CCCCl)OCO3`, the GI50 in assay [1] was more than 100 µM; in assay [2], 24.9 µM; in assay [3], more than 100 µM; in assay [4], 99.8 µM; in assay [5] it was 29.4 µM. Besides, the TGI in assay [1], in assay [2], in assay [3], in assay [4] and in assay [5] was more than 100 µM throughout.
On to `CCCNC(=O)OCc1c(COC(=O)NCCC)c(-c2ccc(Cl)c(Cl)c2)n2c1CCC2`, for which the TGI in assay [1] is more than 100 µM; in assay [2], 17.4 µM; in assay [4] it was 26.6 µM; in assay [5] it was 29.8 µM.
As to `NNC(=O)c1cnn(-c2ccnc3c(C(F)(F)F)cccc23)c1N`, the GI50 in assay [1], in assay [2], in assay [3], in assay [4] and in assay [5] was more than 100 µM throughout. In addition, the TGI in assay [1], in assay [2], in assay [3], in assay [4] and in assay [5] was more than 100 µM throughout.
Take `O=[n+]1c(CBr)c(CBr)n([O-])c2ccccc21`: the GI50 in assay [1] is 2.58 µM; in assay [2], 14.5 µM; in assay [3], 15.3 µM; in assay [4], 3.46 µM; in assay [5], 12 µM. The TGI stood at 6.8 µM in assay [1]; 33.7 µM in assay [2]; 29.6 µM in assay [3]; 17.2 µM in assay [4]; 25 µM in assay [5].
Take `Cn1cc(C2=C(c3ccc(OC[C@@H](O)CO)cc3)C(=O)NC2=O)c2ccccc21`: the GI50 in assay [1], in assay [2], in assay [3], in assay [4] and in assay [5] was more than 25 µM throughout. For the same compound, the TGI in assay [1], in assay [2], in assay [3], in assay [4] and in assay [5] was more than 25 µM throughout.
Turning to `CN(C)CCNc1nc2ccccc2c2[nH]c3ccccc3c12`, the GI50 in assay [1] was 15.8 µM; in assay [2] it was 1.02 µM; in assay [3] it was 2.44 µM; in assay [4], 0.748 µM; in assay [5] it was 0.42 µM. In addition, the TGI turned out to be 92.2 µM in assay [1]; 7.86 µM in assay [2]; 20.9 µM in assay [3]; 9.23 µM in assay [4]; 1.71 µM in assay [5].
Consider `COc1cc2c(c(OC)c1OC)-c1ccc(NCc3ccccc3)c(=O)cc1[C@@H](NC(C)=O)CC2`, for which the GI50 in assay [1] is 0.589 µM; in assay [2] it was 18.7 µM; in assay [3], 0.643 µM; in assay [4] it was 0.381 µM; in assay [5], 0.187 µM. Moreover, the TGI is 41.5 µM in assay [1]; more than 100 µM in assay [2]; 22.8 µM in assay [3]; more than 100 µM in assay [4]; 0.486 µM in assay [5].
For the compound `Cn1c(-c2nonc2N)nc2cnccc21`, the GI50 in assay [1], in assay [2], in assay [3], in assay [4] and in assay [5] was more than 25 µM each time. The TGI in assay [1], in assay [2], in assay [3], in assay [4] and in assay [5] was more than 25 µM in each case.
As for `CC[n+]1ccc2c(c1)C(=O)c1nccc3c1c-2nc1ccccc13`, the GI50 in assay [1] is 2.2 µM; in assay [2], more than 27.7 µM; in assay [3] it was 1.35 µM; in assay [4], 3 µM; in assay [5], 2.34 µM. In addition, the TGI is 9.19 µM in assay [1]; more than 33.3 µM in assay [2]; 6.08 µM in assay [3]; 22.2 µM in assay [4]; 7.24 µM in assay [5].

(Values after PubChem BioAssay (NCI).)
